Source: US8673353B2, “Tablet having improved elution properties” (Dainippon Sumitomo Pharma Co., Ltd, priority 2008, dated 2014)
Counter-ions that a name gives are not always drawn.

Experiment: Particle size by laser diffraction particle size distribution meter (dry method)
Format: physicochemical
Conditions: HELOS&RODOS, drug substance used in the Examples
Source text: The above-mentioned particle sizes (undersize D50% particle size, undersize D90% particle size etc.) are values measured using a laser diffraction particle size distribution meter (dry method). For example, when a laser diffraction particle size distribution measurement apparatus HELOS & RODOS manufactured by Sympatec GmbH is used, measurement can be performed by setting the measurement range to R3 and the indication basis of the particle amount to volume basis.
The particle size of 3/2 fumarate of compound A used in the following Examples was 0.5-3 μm for undersize D50% and 1-12 μm for undersize D90% particle size, as measured by a dry method using a laser diffraction particle size distribution measurement apparatus, HELOS&RODOS, manufactured by Sympatec GmbH.

## O=C1Nc2ccccc2C(c2ccccc2)N1C1CCN(Cc2cccc(OC(F)(F)F)c2)CC1 (single isomer, unassigned; (+)) [3/2 fumarate of compound A, (+)-3-{1-[3-(trifluoromethoxy)benzyl]piperidin-4-yl}-4-phenyl-3,4-dihydro-2(1H)-quinazolinone]
  undersize D50% particle size: 0.5-3 μm
  undersize D90% particle size: 1-12 μm
